Key:
Bacillus subtilis = details: between six sesquiterpene lactones tested; cited from earlier work
spermatozoids [1] = experiment: Count or daily production of spermatozoids (synthetic macamide); assay type: in vivo; details: inventors' laboratory (Gonzales, 2006 page 104)
From the text: (§1) In the inventors' laboratory, the effect of a synthetic macamide, N-benzyl-5-oxo-6E, 8E-octadecadienamide, has been tested, which had no effect in the count or daily production of spermatozoids (Gonzales, 2006 page 104). […] Most of the biological activity is rather found in the more polar fractions (Gonzales, 2006; 2006a; Valerio & Gonzales, 2005).

spermatozoids [2] = experiment: Number of spermatozoids in mice; assay type: in vivo
From the text: as §1

Compound: Fluctuanine
- antibacterial activity (Bacillus subtilis): greatest antibacterial activity

Compound: CCCCCCCCC/C=C/C=C/C(=O)CCCC(=O)NCc1ccccc1 [N-benzyl-5-oxo-6E, 8E-octadecadienamide]
- effect in the count or daily production of spermatozoids (spermatozoids [1]): no effect

Compound: CCCCCCCCCCCCCCCC(=O)NCc1ccccc1 [N-benzyl-hexadecanamide]
- effect on the number of spermatozoids (spermatozoids [2]): not been observed
